According to EP1495019B1, “GLUCOPYRANOSIDE, PROCESS FOR ISOLATION THEREOF, PHARMACEUTICAL COMPOSITION CONTAINING SAME AND USE THEREOF” (COUNCIL OF SCIENTIFIC AND INDUSTRIAL RESEARCH, priority 2002, dated 2003):

Tested on: Wistar rats
Test: hypoglycaemic activity in 18 hour fasted Wistar rats
Type: in vivo
Description: The compound was evaluated for hypoglycaemic activity in 18 hour fasted Wistar rats. […] The mean fall recorded was 24 mg/100 ml blood, from an initial mean of 91 to mean of 67 mg/100 ml blood.

## OC[C@H]1O[C@@H](c2c(O)ccc3cc(Cc4ccc(O)cc4)oc23)[C@H](O)[C@@H](O)[C@@H]1O [formula 1, 6-hydroxy-2-p-hydroxybenzylbenzofuran-7-C-β-D-glucopyranoside]
Dose of 15 mg/kg p.o.
  hypoglycaemic effect: hypoglycaemic effect was recorded in all the treated rats
Dose of 15 mg/kg p.o., from an initial mean of 91
  mean (after treatment): 67 mg/100 ml blood
Dose of 15 mg/kg p.o., initial mean of 91 mg/100 ml blood
  mean fall: 24 mg/100 ml blood

## CCCNC(=O)NS(=O)(=O)c1ccc(Cl)cc1 [chlorpropamide, reference compound]
Positive control, dose not given
  mean fall: 18 mg/100 ml of blood
